{
  "source": "patent US20090197279A1",
  "about": "“MICROTUBULE SYNTHESIS AS A BIOMARKER” (KINEMED, INC., priority 2005, published 2009)",
  "tested_on": "C57BL/6JBomTac mice",
  "experiment": "Contextual fear conditioning (CFC), freezing behavior",
  "format": "in vivo, mouse",
  "from_the_text": "FIG. 10 depicts microtubule/tubulin exchange during hippocampus-dependent contextual memory. (A) Protocol for measurement of microtubule/tubulin exchange during contextual fear conditioning (CFC). Tubulin dimers and microtubules subsets were labeled to plateau through continuous ^2H2O labeling, starting one day before CFC training. Labeling was continued throughout CFC training (Day 2) and the contextual conditioning test until mice were euthanized (Day 3). Vehicle or nocodazole treated-mice were injected 4 hours before CFC training, consisting of three pairings of conditioned and unconditioned stimuli inside an observation chamber, as described in Example 7 below. […] Microtubule subpopulations were fractionated as described below, and the percentage of newly synthesized tubulin was quantified by GC/MS (mean±SD, n=3). […]\nFear conditioning experiments were done as previously described (Bourtchouladze, R. et al. Different training procedures recruit either one or two critical periods for contextual memory consolidation, each of which requires protein synthesis and PKA. Learn. Mem. 5, 365-374 (1998)). […] On day later, contextual conditioning was assessed for 3 consecutive minutes in the chamber in which the mice were trained (CFC test). […]",
  "note": "“Also recorded” adds a separate entry of the source.",
  "data": [
    {"smiles": "COC(=O)Nc1nc2ccc(C(=O)c3cccs3)cc2[nH]1", "note": "[nocodazole]", "values": [
      {"measurement": "freezing behavior (% of freezing to context), CFC test", "setting": "nocodazole 0.2 mg/kg i.p. 4 hours before CFC training, test one day after training, vs vehicle-treated mice", "value": "significant reduction; also recorded: significantly lower"},
      {"measurement": "contextual fear responses measured immediately after training", "setting": "nocodazole vs vehicle, data not shown", "value": "similar"}
    ]}
  ]
}
